Assay [1] deals with Mycobacterium tuberculosis. Kind of assay: Antimycobacterial activity against Mycobacterium tuberculosis H37Rv after 5 days by resazurin-based microdilution method. The class given is functional. The following applies: 120 h. (Resazurin is reduced to fluorescent resorufin, in cell work by metabolically active cells.)
Assay [2] in a line: Binding affinity to Mycobacterium tuberculosis beta-Ketoacyl-ACP Synthase.

Our source for the MIC and Ki values is ChEMBL document CHEMBL3352275, “2-Aminothiazole derivatives as antimycobacterial agents: Synthesis, characterization, in vitro and in silico studies” (Eur J Med Chem, 2014).

SMILES strings stand for the structures. In brackets after ≈: the same amount, converted by molar mass.

Take `Oc1ccc(Nc2nc(-c3ccc(Cl)cc3)cs2)cc1`: the MIC (in general, the lowest concentration found to suppress growth) in assay [1] came to 200 µM (≈ 60.6 µg/mL).

`COc1ccc(-c2csc(Nc3ccc(O)cc3)n2)cc1` had an MIC in assay [1] greater than 200 µM.

In the case of `COc1ccc(-c2csc(Nc3cccc(C)n3)n2)cc1`, in assay [1], the MIC is greater than 200 µM.

In turn, `Fc1ccc(Nc2nc(-c3cccnc3)cs2)cc1` had an MIC in assay [1] greater than 200 µM.

Turning to `Cc1cccnc1Nc1nc(-c2ccc(Br)cc2)c(Br)s1`, the MIC in assay [1] is greater than 200 µM.

Turning to `Fc1ccc(Nc2nc(-c3ccc(Cl)cc3)cs2)cc1`, the MIC in assay [1] was found to be 12.5 µM (≈ 3.81 µg/mL).

As for `Fc1ccc(Nc2nc(-c3ccc(Br)cc3)cs2)cc1`, the Ki (as a rule, a measure of affinity in units of concentration, obtained from inhibition or displacement) in assay [2] is 1.28 µM. Moreover, in assay [1], the MIC is 25 µM (≈ 8.73 µg/mL).

Molecule `Cc1sc(Nc2ccc(F)cc2)nc1-c1ccc(Br)cc1` showed an MIC in assay [1] of 100 µM (≈ 36.3 µg/mL).

Take `Fc1ccc(Nc2nc(-c3ccc(Br)cc3)c(Br)s2)cc1`: the MIC in assay [1] turned out to be 25 µM (≈ 10.7 µg/mL).

Take `Fc1ccc(Nc2nc(-c3ccc4ccccc4c3)cs2)cc1`: the MIC in assay [1] was found to be 100 µM (≈ 32 µg/mL).

For `COc1ccc(-c2csc(Nc3ccc(F)cc3)n2)cc1`, in assay [1], the MIC worked out at 12.5 µM (≈ 3.75 µg/mL). This MIC lies about 8-fold lower than the previous one.

Consider `COc1ccc(-c2csc(Nc3ccc(Cl)cc3[N+](=O)[O-])n2)cc1`, for which the MIC in assay [1] amounted to 12.5 µM (≈ 4.52 µg/mL).

In turn, `O=[N+]([O-])c1cc(Cl)ccc1Nc1nc(-c2ccc3ccccc3c2)cs1` displayed an MIC in assay [1] greater than 200 µM.

On to `Brc1ccc(Nc2nc(-c3ccncc3)cs2)cc1`, for which the Ki in assay [2] amounted to 0.44 µM.

Consider `O=[N+]([O-])c1cc(Cl)ccc1Nc1nc(-c2ccccn2)cs1`, for which the MIC in assay [1] was greater than 200 µM.

Regarding `O=[N+]([O-])c1cc(Cl)ccc1Nc1nc(-c2cccnc2)cs1`, in assay [1], the MIC was greater than 200 µM.

On to `O=[N+]([O-])c1cc(Cl)ccc1Nc1nc(-c2ccncc2)cs1`, for which, in assay [1], the MIC was greater than 200 µM.

`Brc1ccc(-c2csc(Nc3ccccn3)n2)cc1` showed an MIC in assay [1] greater than 200 µM.

`Cc1sc(Nc2ccccn2)nc1-c1ccc(Br)cc1` displayed an MIC in assay [1] greater than 200 µM.

Take `Brc1ccc(-c2nc(Nc3ccccn3)sc2Br)cc1`: the MIC in assay [1] is greater than 200 µM.

`Cc1cccnc1Nc1nc(-c2ccc(Cl)c(Cl)c2)cs1` had an MIC in assay [1] greater than 200 µM.

In the case of `Cc1cccnc1Nc1nc(-c2ccc(Br)cc2)c(C)s1`, it took 100 µM (≈ 36 µg/mL) to inhibit growth in assay [1] (MIC).

Regarding `Cc1cccc(Nc2nc(-c3ccc(Cl)c(Cl)c3)cs2)n1`, the MIC in assay [1] was greater than 200 µM.

`Cc1cccc(Nc2nc(-c3ccc(Br)cc3)c(C)s2)n1`: in assay [1], the MIC was greater than 200 µM.

Turning to `Cc1cccc(Nc2nc(-c3cccc4ccccc34)cs2)n1`, in assay [1], the MIC is greater than 200 µM.

Regarding `Cc1cccnc1Nc1nc(-c2cccnc2)cs1`, the MIC in assay [1] is greater than 200 µM.

Turning to `Cc1cccc(Nc2nc(-c3ccncc3)cs2)n1`, the affinity in assay [2] corresponds to a Ki of 30.2 µM. In assay [1], this molecule gave an MIC of 100 µM (≈ 26.8 µg/mL).

Molecule `Cc1cccnc1Nc1nc(-c2ccncc2)cs1` yielded an MIC in assay [1] greater than 200 µM.

As for `Oc1ccc(Nc2nc(-c3cccnc3)cs2)cc1`, the MIC in assay [1] was greater than 200 µM.

`c1ccc(Nc2nc(-c3cccnc3)cs2)nc1` gave an MIC in assay [1] greater than 200 µM.

Molecule `Oc1ccc(Nc2nc(-c3ccncc3)cs2)cc1` came in with an MIC in assay [1] greater than 200 µM.

Consider `Fc1ccc(Nc2nc(-c3ccncc3)cs2)cc1`, for which the MIC in assay [1] amounted to 25 µM (≈ 6.78 µg/mL). In other words, the double-digit micromolar range.
